Laboratory results reported in PMC5201331, “Subchronic Toxicities of HZ1006, a Hydroxamate-Based Histone Deacetylase Inhibitor, in Beagle Dogs and Sprague-Dawley Rats” (International Journal of Environmental Research and Public …, 2016).

How the values were obtained:
Beagle dogs [1] = assay: Subchronic toxicity test in Beagle dogs: clinical observation; format: in vivo; details: for Frequencies of Diarrhea / Frequencies of Vomiting: beagle, dog, in vivo, po, 42 days
Experimental: (§1) HZ1006 was administered orally to dogs (four/sex/group) at doses of 80, 40, 20, 5 and 0 (control) mg/kg/day, and the dosage volume was 2 mL/kg. The dogs received test doses with the exact amounts on a weekly basis based on current body weights. […] The other dogs in the above groups were dissected on the planned days. For the other groups, half of the dogs were anatomized on d28 and the remaining half on d42.
(§2) Clinical symptoms and mortality were examined at least twice daily during the 42-day period, which included any changes in reaction to treatment, behavior, illness, food consumption, and body weight. Breathing rates, rectal temperature and pupil changes in the Beagle dogs were assessed once every 2 weeks.

Beagle dogs [2] = assay: Subchronic toxicity test in Beagle dogs: histopathology; format: in vivo; details: after 28 days
Experimental: as §1
After euthanasia, the following organs or tissues were isolated from the dogs and rats: skin, abnormal lesions, spleen, mammary glands, jejunum, pancreas, ileum, duodenum, stomach, colon, cecum, lymph nodes, mesenteric salivary glands, liver, submandibular lymph nodes, thymus, sternum, lungs, heart, esophagus, trachea, tongue, thyroid with parathyroid gland, sciatic nerve, aorta, femurs, skeletal muscle, pituitary gland, brain, kidneys, eyes, urinary bladder, adrenal glands, uterus, ovaries, testes, epididymis and prostate. The weights of the animal organs, such as the liver, spleen, heart, thymus, brain, lungs, adrenal glands, kidneys, uterus, ovaries, epididymis and testes, were tested using an electronic balance. The organs or tissues were fixed using 10% neutral buffered formalin and were then gradient dehydrated, embedded, sectioned, and stained with routine hematoxylin-eosin prior to histopathological observations.

[3] = Toxicokinetics in SD rats; format: in vivo, Sprague-Dawley (SD) rats; details: for AUC(0-inf) / Cmax / Tmax / half-life: both sexes, Sprague-Dawley, rat, plasma, po, SD rats; for accumulation coefficient R: rats, after 28 days compared with d1
Experimental: The rats that were judged suitable for the subchronic toxicity study were randomly divided into four groups (10 rats/sex/group). The rats received the test sample by gavage once daily for 28 days. HZ1006 was administered to the rats at doses of 120, 60, 20 and 0 (control) mg/kg, and the dosage volume was 5 mL/kg. Half of the 80 rats (half male and half female) were selected randomly according to body weight and dissected at d28. The remaining rats were dissected at […]. The dogs' blood samples were obtained on the 1st day, the 14th day and the last day (d28) of dosage for plasma HZ1006 content analyses at 0 (1st day only), 1/6, 0.5, 1, 2, 4, 8, 12 and 24 h after dosing, and the blood samples of the rats were acquired on the 1st day and 28th day at the same time as those of the dogs, which were handled and analyzed according to the procedure reported by Zhang et al..

SD rats = assay: Subchronic toxicity test in SD rats: clinical observation, body weight; format: in vivo; details: for body weight reduced compared with the control group: male rats, 120 mg/kg oral daily
Experimental: The rats that were judged suitable for the subchronic toxicity study were randomly divided into four groups (10 rats/sex/group). The rats received the test sample by gavage once daily for 28 days. HZ1006 was administered to the rats at doses of 120, 60, 20 and 0 (control) mg/kg, and the dosage volume was 5 mL/kg. Half of the 80 rats (half male and half female) were selected randomly according to body weight and dissected at d28. The remaining rats were dissected at d42.
as §2

[4] = Subchronic toxicity test in Beagle dogs: overall (NOAEL, urinalysis, ECG); format: in vivo; details: both sexes, beagle, dog, in vivo, daily oral administration, 28 days, read-out: NOAEL (No Observed Adverse Effect Level)
Experimental: as §1, §2
(§3) The parameters of the dogs’ ECG included the Heart rate, Time at R, P Duration, P-R interval, T Duration, QRS Durations, Q-T Intervals and ST Segment, which were examined by an ECG6511 ECG instrument (manufactured by Shanghai Kohden Medical Electronic Instrument Corp., Shanghai, China) on d0 (twice), d14, d28 and d42 using the II limb lead method.
(§4) A Micro AUTION MA-4260 Autoanalyzer from Arkray Global Business, Inc. (kyoto, Japan), was used to analyze the animal urine samples. Parameters such as pH, specific gravity, nitrites, leukocytes, glucose, protein, urobilinogen, ketones, occult blood, bilirubin, and hemoglobin were tested.

Beagle dogs [5] = assay: as above; format: in vivo
Experimental: as §1, §2, §3, §4

[6] = 20 mg/kg/day, 20 mg/kg/day oral, 28 days
[7] = 20 mg/kg/day, 20 mg/kg/day oral, single
[8] = 60 mg/kg/day, 60 mg/kg/day oral, 28 days
[9] = 60 mg/kg/day, 60 mg/kg/day oral, single
[10] = 120 mg/kg/day, 120 mg/kg/day oral, 28 days
[11] = 120 mg/kg/day, 120 mg/kg/day oral, single

SMILES: CCCCCCCNc1cc(/C=C/C(=O)NO)ccc1OCCN(CC)CC [HZ1006]
- mortality (Beagle dogs [1]; dogs, 5-80 mg/kg/day oral, ♀6 d8 and ♀8 d10 (80 mg/kg), ♀28 d16 (40 mg/kg)): Three dogs died during the study
- Frequencies of Diarrhea (Beagle dogs [1]; female, 5 mg/kg/day): 0 days
- Frequencies of Vomiting (Beagle dogs [1]; female, 5 mg/kg/day): 0 days
- Frequencies of Diarrhea (Beagle dogs [1]; female, 20 mg/kg/day): 0 days
- Frequencies of Diarrhea (Beagle dogs [1]; male, 5 mg/kg/day): 0 days
- Frequencies of Vomiting (Beagle dogs [1]; male, 5 mg/kg/day): 0 days
- Frequencies of Diarrhea (Beagle dogs [1]; male, 20 mg/kg/day): 0 days
- Bone marrow of sternum: decrease in hematopoietic cell numbers (incidence/number examined) (Beagle dogs [2]; 5 mg/kg/day oral): 0/4
- Epididymis: lack of mature sperm and secretions in the epididymal lumen as well as decrease of epididymal lumen size (incidence/number examined) (Beagle dogs [2]; 5 mg/kg/day oral): 0/2
- Lung: large confluent bronchopneumonia (incidence/number examined) (Beagle dogs [2]; 5 mg/kg/day oral): 0/4
- Prostate: reduction in numbers and size, thinner epithelium, narrowing of the glandular cavity of prostatic acini (incidence/number examined) (Beagle dogs [2]; 5 mg/kg/day oral): 0/2
- Testis: Reduction in numbers and types of spermatogenic cells (incidence/number examined) (Beagle dogs [2]; 5 mg/kg/day oral): 0/2
- Epididymis: lack of mature sperm and secretions in the epididymal lumen as well as decrease of epididymal lumen size (incidence/number examined) (Beagle dogs [2]; 20 mg/kg/day oral): 0/2
- Lung: large confluent bronchopneumonia (incidence/number examined) (Beagle dogs [2]; 20 mg/kg/day oral): 0/4
- Prostate: reduction in numbers and size, thinner epithelium, narrowing of the glandular cavity of prostatic acini (incidence/number examined) (Beagle dogs [2]; 20 mg/kg/day oral): 0/2
- Testis: Reduction in numbers and types of spermatogenic cells (incidence/number examined) (Beagle dogs [2]; 20 mg/kg/day oral): 0/2
- Bone marrow of sternum: decrease in hematopoietic cell numbers (incidence/number examined) (Beagle dogs [2]; 40 mg/kg/day oral): 2/4
- Epididymis: lack of mature sperm and secretions in the epididymal lumen as well as decrease of epididymal lumen size (incidence/number examined) (Beagle dogs [2]; 40 mg/kg/day oral): 2/2
- Lung: large confluent bronchopneumonia (incidence/number examined) (Beagle dogs [2]; 40 mg/kg/day oral): 2/4
- Prostate: reduction in numbers and size, thinner epithelium, narrowing of the glandular cavity of prostatic acini (incidence/number examined) (Beagle dogs [2]; 40 mg/kg/day oral): 2/2
- Testis: Reduction in numbers and types of spermatogenic cells (incidence/number examined) (Beagle dogs [2]; 40 mg/kg/day oral): 2/2
- Bone marrow of sternum: decrease in hematopoietic cell numbers (incidence/number examined) (Beagle dogs [2]; 80 mg/kg/day oral): 3/4
- Epididymis: lack of mature sperm and secretions in the epididymal lumen as well as decrease of epididymal lumen size (incidence/number examined) (Beagle dogs [2]; 80 mg/kg/day oral): 2/2
- Lung: large confluent bronchopneumonia (incidence/number examined) (Beagle dogs [2]; 80 mg/kg/day oral): 2/4
- Prostate: reduction in numbers and size, thinner epithelium, narrowing of the glandular cavity of prostatic acini (incidence/number examined) (Beagle dogs [2]; 80 mg/kg/day oral): 2/2
- Testis: Reduction in numbers and types of spermatogenic cells (incidence/number examined) (Beagle dogs [2]; 80 mg/kg/day oral): 2/2
- AUC(0-inf) [3, 6]: 32.7 ± 14.9 ng·h/mL
- Cmax [3, 6]: 12.9 ± 9.5 ng/mL
- Tmax [3, 6]: 0.34 ± 0.18 h
- half-life [3, 6]: 7.32 ± 2.93 h
- AUC(0-inf) [3, 7]: 8 ± 9.1 ng·h/mL
- Cmax [3, 7]: 7.5 ± 7.2 ng/mL
- Tmax [3, 7]: 0.86 ± 1.54 h
- half-life [3, 7]: 0.6 ± 0.37 h
- AUC(0-inf) [3, 8]: 114 ± 30.9 ng·h/mL
- Cmax [3, 8]: 19.7 ± 3.3 ng/mL
- Tmax [3, 8]: 0.28 ± 0.17 h
- half-life [3, 8]: 7.57 ± 2.31 h
- AUC(0-inf) [3, 9]: 39.1 ± 15 ng·h/mL
- Cmax [3, 9]: 13.3 ± 5.5 ng/mL
- Tmax [3, 9]: 0.5 h
- half-life [3, 9]: 6.83 ± 2.69 h
- AUC(0-inf) [3, 10]: 447 ± 282 ng·h/mL
- Cmax [3, 10]: 57.5 ± 26.1 ng/mL
- Tmax [3, 10]: 1.92 ± 3.07 h
- half-life [3, 10]: 7.03 ± 1.9 h
- AUC(0-inf) [3, 11]: 69.9 ± 22.9 ng·h/mL
- Cmax [3, 11]: 20.4 ± 3.8 ng/mL
- Tmax [3, 11]: 0.45 ± 0.13 h
- half-life [3, 11]: 6.51 ± 1.62 h
- accumulation coefficient R ([3]; 20 mg/kg/day oral): 16.8 ± 21.6
- accumulation coefficient R ([3]; 60 mg/kg/day oral): 3.2 ± 1.2
- accumulation coefficient R ([3]; 120 mg/kg/day oral): 6.3 ± 2.8
- body weight reduced compared with the control group (SD rats; week 4): 8%
- body weight reduced compared with the control group (SD rats; week 5): 15%
- survival (SD rats; rats, 20-120 mg/kg oral daily, 28 days + 14-day recovery): All rats survived until the scheduled necropsies
- NOAEL at 28 days [4]: 5 mg/kg
- ECG examination (Beagle dogs [5]; 5-80 mg/kg/day oral): no dose-related changes
- urinalysis (Beagle dogs [5]; 5-80 mg/kg/day oral): no dose-related changes
- minimum toxic dose (Beagle dogs [5]; daily oral administration, 28 days): 20 mg/kg
